In patent US12172983B2, “EGFR inhibitors” (Blueprint Medicines Corporation, priority 2019, dated 2024):
Like-named read-outs stand apart in the source and are kept apart here.

Key:
EGFR (L858R T790M C797S) = molecular target: T1, EGFR (L858R T790M C797S) (Homo sapiens, UniProt P00533, C797S/L858R/T790M); assay: Biochemical EGFR inhibition assay (Caliper mobility shift), EGFR LRTMCS mutant; conditions: inhibitory activity against EGFR LRTMCS mutant; apparent IC50; read-out: Ext Enz LRTMCS
T1 construct: purchased SignalChem E10-122VG
In short: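 Apparent IC50s were derived by plotting percent activity against the log of compound concentration. Activity was measured as phosphopeptide electrophoretically separated from substrate, after reactions at room temperature reached 10% to 20% phosphorylation and were halted with 35 mM EDTA.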

[1] = tested on: phosphorylation of EGFR (Tyr1068) in NCI-H1975 cell line that harbors the EGFR L858R T790M mutations; assay: NCI-H1975 pEGFR AlphaLISA assay; format: cell-based; conditions: 4-5 hours incubation, read-out: Ext pEGFR H1975
In short: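 Phospho-EGFR Tyr1068 AlphaLISA readout: lysates taken from compound-treated H1975 cells (L858R T790M EGFR) after a 4-5 h exposure at 37 °C. Cells had adhered overnight beforehand. IC50 derived by plotting % pEGFR inhibition against log compound concentration.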

[2] = Homo sapiens, NCI-H1975, inhibition of phosphorylation of mutant EGFR in NCI-H1975 cells
[3] = inhibition of phosphorylation of mutant EGFR in NCI-H1975 cells

T1 sequence (P00533 25-1210 T790M/C797S/L858R): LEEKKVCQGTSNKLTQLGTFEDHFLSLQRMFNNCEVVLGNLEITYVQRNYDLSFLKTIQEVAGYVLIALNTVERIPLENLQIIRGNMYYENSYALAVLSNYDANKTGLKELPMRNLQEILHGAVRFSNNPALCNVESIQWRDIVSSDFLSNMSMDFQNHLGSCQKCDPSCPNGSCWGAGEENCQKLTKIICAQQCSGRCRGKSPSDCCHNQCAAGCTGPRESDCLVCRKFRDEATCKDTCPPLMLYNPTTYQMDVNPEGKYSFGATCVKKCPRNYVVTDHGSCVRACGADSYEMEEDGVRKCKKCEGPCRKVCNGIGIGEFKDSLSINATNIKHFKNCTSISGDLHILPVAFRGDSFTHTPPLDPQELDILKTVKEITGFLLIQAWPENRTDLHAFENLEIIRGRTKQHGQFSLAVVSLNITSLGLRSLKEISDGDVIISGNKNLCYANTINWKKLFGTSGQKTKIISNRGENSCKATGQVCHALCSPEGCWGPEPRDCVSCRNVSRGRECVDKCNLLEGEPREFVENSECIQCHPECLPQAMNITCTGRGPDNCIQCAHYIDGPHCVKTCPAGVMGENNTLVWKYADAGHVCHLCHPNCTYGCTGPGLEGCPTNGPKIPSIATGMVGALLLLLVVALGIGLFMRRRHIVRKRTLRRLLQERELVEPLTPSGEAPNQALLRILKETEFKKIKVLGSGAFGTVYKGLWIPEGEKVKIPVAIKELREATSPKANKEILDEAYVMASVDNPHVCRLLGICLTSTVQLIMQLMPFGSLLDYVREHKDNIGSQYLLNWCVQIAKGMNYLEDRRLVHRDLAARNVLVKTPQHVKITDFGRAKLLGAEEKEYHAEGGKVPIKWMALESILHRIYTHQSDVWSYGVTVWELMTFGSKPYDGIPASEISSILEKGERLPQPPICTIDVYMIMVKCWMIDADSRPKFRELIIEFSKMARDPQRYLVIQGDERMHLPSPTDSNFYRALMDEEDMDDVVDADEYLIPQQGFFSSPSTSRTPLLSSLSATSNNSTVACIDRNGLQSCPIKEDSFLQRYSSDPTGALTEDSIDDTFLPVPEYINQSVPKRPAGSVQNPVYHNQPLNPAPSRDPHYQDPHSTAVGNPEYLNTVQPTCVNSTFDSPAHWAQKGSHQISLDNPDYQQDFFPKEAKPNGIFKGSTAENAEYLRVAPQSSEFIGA

Row | SMILES | IC50 (EGFR (L858R T790M C797S)) [nM] | IC50 [1, 2] [nM] | IC50 [1, 3] [nM]
1 | CO[C@H]1[C@@H](O)CN(c2nccc(Nc3cc4c(C(C)C)ncc(N5C[C@H](CS(C)(=O)=O)[C@H]5C)c4cn3)n2)CC1(F)F (single isomer, unassigned) [Compound 234, (3S,4S)-5,5-difluoro-1-[4-({8-[(2R,3S)-3-(methanesulfonylmethyl)-2-methylazetidin-1-yl]-5-(propan-2-yl)-2,6-naphthyridin-3-yl}amino)pyrimidin-2-yl]-4-methoxypiperidin-3-ol or (3R,4R)-5,5-difluoro-1-[4-({8-[(2R,3S)-3-(methanesulfonylmethyl)-2-methylazetidin-1-yl]-5-(propan-2-yl)-2,6-naphthyridin-3-yl}amino)pyrimidin-2-yl]-4-methoxypiperidin-3-ol] | 20.1 to 30 | 20.1 to 30 | –
2 | CO[C@@H]1[C@H](O)CN(c2nccc(Nc3cc4c(C(C)C)cnc(N5C[C@H](CS(C)(=O)=O)[C@H]5C)c4cn3)n2)CC1(F)F (single isomer, unassigned) [Compound 235, (3R,4R)-5,5-difluoro-1-[4-({8-[(2R,3S)-3-(methanesulfonylmethyl)-2-methylazetidin-1-yl]-5-(propan-2-yl)-2,7-naphthyridin-3-yl}amino)pyrimidin-2-yl]-4-methoxypiperidin-3-ol or (3S,4S)-5,5-difluoro-1-[4-({8-[(2R,3S)-3-(methanesulfonylmethyl)-2-methylazetidin-1-yl]-5-(propan-2-yl)-2,7-naphthyridin-3-yl}amino)pyrimidin-2-yl]-4-methoxypiperidin-3-ol] | ≤ 15 | ≤ 10 | –
3 | CO[C@@H]1[C@H](O)CN(c2nccc(Nc3cc4c(C(C)C)cnc(N5C[C@H](CS(C)(=O)=O)[C@H]5C)c4cn3)n2)CC1(F)F (single isomer, unassigned) [Compound 236, (3S,4S)-5,5-difluoro-1-[4-({8-[(2R,3S)-3-(methanesulfonylmethyl)-2-methylazetidin-1-yl]-5-(propan-2-yl)-2,7-naphthyridin-3-yl}amino)pyrimidin-2-yl]-4-methoxypiperidin-3-ol or (3R,4R)-5,5-difluoro-1-[4-({8-[(2R,3S)-3-(methanesulfonylmethyl)-2-methylazetidin-1-yl]-5-(propan-2-yl)-2,7-naphthyridin-3-yl}amino)pyrimidin-2-yl]-4-methoxypiperidin-3-ol] | ≤ 15 | – | 10.1 to 20
4 | CC(C)c1cnc(N2CC(CS(=O)(=O)C(F)(F)F)C2)c2cnc(Nc3ccnc(N4CC[C@@H](O)[C@@](C)(F)C4)n3)cc12 (single isomer, unassigned) [Compound 237] | 30.1 to 100 | 20.1 to 30 | –
5 | CC(C)c1ccc(N2CC(CS(=O)(=O)C3CN(C)C3)C2)c2cnc(Nc3ccnc(N4CC[C@@H](O)[C@@](C)(F)C4)n3)cc12 (single isomer, unassigned) [Compound 238] | ≤ 15 | ≤ 10 | –
6 | CC(C)c1ccc(N2CC(CS(=O)(=O)CCN(C)C)C2)c2cnc(Nc3ccnc(N4CC[C@@H](O)[C@@](C)(F)C4)n3)cc12 (single isomer, unassigned) [Compound 239] | ≤ 15 | ≤ 10 | –
7 | CC(C)c1ccc(N2C[C@H](CS(C)(=O)=O)[C@H]2C)c2cnc(Nc3ccnc(N4CC[C@@H](OCCO)[C@@](C)(F)C4)n3)cc12 (single isomer, unassigned) [Compound 242] | ≤ 15 | ≤ 10 | –
8 | COCCO[C@@H]1CCN(c2nccc(Nc3cc4c(C(C)C)ccc(N5C[C@H](CS(C)(=O)=O)[C@H]5C)c4cn3)n2)C[C@@H]1F (single isomer, unassigned) [Compound 245] | ≤ 15 | ≤ 10 | –
9 | COCCO[C@H]1CCN(c2nccc(Nc3cc4c(C(C)C)ccc(N5C[C@H](CS(C)(=O)=O)[C@H]5C)c4cn3)n2)C[C@H]1F (single isomer, unassigned) [Compound 246] | ≤ 15 | ≤ 10 | –
10 | CC(C)c1ccc(N2C[C@H](CS(C)(=O)=O)[C@H]2C)c2cnc(Nc3ccnc(N4CC[C@@H](OC[C@H](C)O)[C@@H](F)C4)n3)cc12 (single isomer, unassigned) [Compound 247, (2S)-1-{[(3S,4R)-3-fluoro-1-[4-({8-[(2R,3S)-3-(methanesulfonylmethyl)-2-methylazetidin-1-yl]-5-(propan-2-yl)isoquinolin-3-yl}amino)pyrimidin-2-yl]piperidin-4-yl]oxy}propan-2-ol or (2R)-1-{[(3S,4R)-3-fluoro-1-[4-({8-[(2R,3S)-3-(methanesulfonylmethyl)-2-methylazetidin-1-yl]-5-(propan-2-yl)isoquinolin-3-yl}amino)pyrimidin-2-yl]piperidin-4-yl]oxy}propan-2-ol] | ≤ 15 | ≤ 10 | –
11 | CC(C)c1ccc(N2C[C@H](CS(C)(=O)=O)[C@H]2C)c2cnc(Nc3ccnc(N4CC[C@@H](OC[C@H](C)O)[C@@H](F)C4)n3)cc12 (single isomer, unassigned) [Compound 248, (2R)-1-{[(3S,4R)-3-fluoro-1-[4-({8-[(2R,3S)-3-(methanesulfonylmethyl)-2-methylazetidin-1-yl]-5-(propan-2-yl)isoquinolin-3-yl}amino)pyrimidin-2-yl]piperidin-4-yl]oxy}propan-2-ol or (2S)-1-{[(3S,4R)-3-fluoro-1-[4-({8-[(2R,3S)-3-(methanesulfonylmethyl)-2-methylazetidin-1-yl]-5-(propan-2-yl)isoquinolin-3-yl}amino)pyrimidin-2-yl]piperidin-4-yl]oxy}propan-2-ol] | ≤ 15 | – | ≤ 10
12 | CC(C)c1ccc(N2C[C@H](CS(C)(=O)=O)[C@H]2C)c2cnc(Nc3ccnc(N4CC[C@@H](OCCO)C(F)(F)C4)n3)cc12 (single isomer, unassigned) [Compound 251] | 15.1 to 20 | ≤ 10 | –
13 | CC(C)c1ccc(N2C[C@H](CS(C)(=O)=O)[C@H]2C)c2cnc(Nc3ccnc(N4CC[C@H](OCCO)C(F)(F)C4)n3)cc12 (single isomer, unassigned) [Compound 252] | 20.1 to 30 | ≤ 10 | –
14 | CC(C)c1cnc(N2C[C@H](CS(C)(=O)=O)[C@H]2C)c2cnc(Nc3ccnc(N4CC[C@H]5COC[C@H]54)n3)cc12 (single isomer, unassigned) [Compound 266, N-{2-[(3aR,6aS)-hexahydro-1H-furo[3,4-b]pyrrol-1-yl]pyrimidin-4-yl}-8-[(2R,3S)-3-(methanesulfonylmethyl)-2-methylazetidin-1-yl]-5-(propan-2-yl)-2,7-naphthyridin-3-amine or N-{2-[(3aS,6aR)-hexahydro-1H-furo[3,4-b]pyrrol-1-yl]pyrimidin-4-yl}-8-[(2R,3S)-3-(methanesulfonylmethyl)-2-methylazetidin-1-yl]-5-(propan-2-yl)-2,7-naphthyridin-3-amine] | ≤ 15 | ≤ 10 | –
15 | CC(C)c1ncc(N2C[C@H](CS(C)(=O)=O)[C@H]2C)c2cnc(Nc3ccnc(N4CC[C@H]5COC[C@H]54)n3)cc12 (single isomer, unassigned) [Compound 267, N-(2-((3aR,6aS)-hexahydro-1H-furo[3,4-b]pyrrol-1-yl)pyrimidin-4-yl)-5-isopropyl-8-((2R,3S)-2-methyl-3-((methylsulfonyl)methyl)azetidin-1-yl)-2,6-naphthyridin-3-amine or N-(2-((3aS,6aR)-hexahydro-1H-furo[3,4-b]pyrrol-1-yl)pyrimidin-4-yl)-5-isopropyl-8-((2R,3S)-2-methyl-3-((methylsulfonyl)methyl)azetidin-1-yl)-2,6-naphthyridin-3-amine] | ≤ 15 | ≤ 10 | –
16 | CC(C)c1ccc(N2C[C@H](CS(C)(=O)=O)[C@H]2C)c2cnc(Nc3ccnc(N4CC[C@H](F)[C@H](O)C4)n3)cc12 (single isomer, unassigned) [Compound 268, (3R,4S)-4-fluoro-1-[4-({8-[(2R,3S)-3-(methanesulfonylmethyl)-2-methylazetidin-1-yl]-5-(propan-2-yl)isoquinolin-3-yl}amino)pyrimidin-2-yl]piperidin-3-ol or (3S,4R)-4-fluoro-1-[4-({8-[(2R,3S)-3-(methanesulfonylmethyl)-2-methylazetidin-1-yl]-5-(propan-2-yl)isoquinolin-3-yl}amino)pyrimidin-2-yl]piperidin-3-ol] | 30.1 to 100 | 20.1 to 30 | –
17 | CC(C)c1ccc(N2C[C@H](CS(C)(=O)=O)[C@H]2C)c2cnc(Nc3ccnc(N4CC[C@@H](F)[C@@H](O)C4)n3)cc12 (single isomer, unassigned) [Compound 269, (3S,4R)-4-fluoro-1-[4-({8-[(2R,3S)-3-(methanesulfonylmethyl)-2-methylazetidin-1-yl]-5-(propan-2-yl)isoquinolin-3-yl}amino)pyrimidin-2-yl]piperidin-3-ol or (3R,4S)-4-fluoro-1-[4-({8-[(2R,3S)-3-(methanesulfonylmethyl)-2-methylazetidin-1-yl]-5-(propan-2-yl)isoquinolin-3-yl}amino)pyrimidin-2-yl]piperidin-3-ol] | ≤ 15 | ≤ 10 | –
